Assays:
[1] = test system: Tyrosine-protein kinase ABL1 (Homo sapiens), P00519 [F317L]; test: Selectivity interaction (KinomeScan (DiscoverX)) EUB0000229b ABL1; conditions: at 1 µM
[2] = target: T1, Serine/threonine-protein kinase ULK3 (Homo sapiens) (UniProt Q6PHR2); test: Selectivity interaction (KinomeScan (DiscoverX)) EUB0000229b ULK3; conditions: at 10 µM
T1 sequence (whole entry): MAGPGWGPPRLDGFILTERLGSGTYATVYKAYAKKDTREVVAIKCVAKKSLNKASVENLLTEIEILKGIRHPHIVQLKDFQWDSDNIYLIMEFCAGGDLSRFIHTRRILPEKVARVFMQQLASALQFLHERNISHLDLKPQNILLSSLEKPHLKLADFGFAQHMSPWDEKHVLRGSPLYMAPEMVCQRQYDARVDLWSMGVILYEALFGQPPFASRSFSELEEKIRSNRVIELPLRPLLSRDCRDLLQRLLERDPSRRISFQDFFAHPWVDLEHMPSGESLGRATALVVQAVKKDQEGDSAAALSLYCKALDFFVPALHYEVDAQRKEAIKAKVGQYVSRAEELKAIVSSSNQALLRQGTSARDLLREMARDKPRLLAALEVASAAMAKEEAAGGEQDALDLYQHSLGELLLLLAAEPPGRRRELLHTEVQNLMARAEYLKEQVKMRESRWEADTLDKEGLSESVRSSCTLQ

[3] = target: T2, Ankyrin repeat and protein kinase domain-containing protein 1 (Homo sapiens) (UniProt Q8NFD2); test: Selectivity interaction (KinomeScan (DiscoverX)) EUB0000092b ANKK1; conditions: at 10 µM
T2 sequence (whole entry): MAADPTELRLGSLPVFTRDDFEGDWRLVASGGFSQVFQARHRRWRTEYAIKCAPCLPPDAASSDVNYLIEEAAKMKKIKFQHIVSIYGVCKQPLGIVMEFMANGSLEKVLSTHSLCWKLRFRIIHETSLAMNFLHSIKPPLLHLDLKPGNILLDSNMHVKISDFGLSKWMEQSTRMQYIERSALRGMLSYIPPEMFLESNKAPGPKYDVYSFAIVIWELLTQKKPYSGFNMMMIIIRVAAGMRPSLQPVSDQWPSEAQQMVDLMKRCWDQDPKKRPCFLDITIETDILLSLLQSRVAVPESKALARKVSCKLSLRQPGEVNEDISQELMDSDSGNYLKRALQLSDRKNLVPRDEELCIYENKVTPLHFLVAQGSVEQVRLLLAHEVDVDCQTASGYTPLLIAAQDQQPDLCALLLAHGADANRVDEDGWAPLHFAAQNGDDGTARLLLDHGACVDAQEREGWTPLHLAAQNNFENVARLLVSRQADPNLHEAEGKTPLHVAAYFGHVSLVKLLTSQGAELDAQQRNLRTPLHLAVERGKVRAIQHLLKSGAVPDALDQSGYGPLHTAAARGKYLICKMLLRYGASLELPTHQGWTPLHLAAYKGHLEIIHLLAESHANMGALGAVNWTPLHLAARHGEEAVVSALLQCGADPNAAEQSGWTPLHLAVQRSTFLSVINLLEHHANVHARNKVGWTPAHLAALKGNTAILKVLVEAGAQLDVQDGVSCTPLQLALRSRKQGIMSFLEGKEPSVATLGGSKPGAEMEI

[4] = target: Protein kinase C eta type (Homo sapiens) (UniProt P24723); test: Selectivity interaction (Upstate Kinase Profiler service (Millipore)) EUB0000056c PRKCH; conditions: at 1 µM
Sequence of Protein kinase C eta type (Homo sapiens) (P24723 whole entry): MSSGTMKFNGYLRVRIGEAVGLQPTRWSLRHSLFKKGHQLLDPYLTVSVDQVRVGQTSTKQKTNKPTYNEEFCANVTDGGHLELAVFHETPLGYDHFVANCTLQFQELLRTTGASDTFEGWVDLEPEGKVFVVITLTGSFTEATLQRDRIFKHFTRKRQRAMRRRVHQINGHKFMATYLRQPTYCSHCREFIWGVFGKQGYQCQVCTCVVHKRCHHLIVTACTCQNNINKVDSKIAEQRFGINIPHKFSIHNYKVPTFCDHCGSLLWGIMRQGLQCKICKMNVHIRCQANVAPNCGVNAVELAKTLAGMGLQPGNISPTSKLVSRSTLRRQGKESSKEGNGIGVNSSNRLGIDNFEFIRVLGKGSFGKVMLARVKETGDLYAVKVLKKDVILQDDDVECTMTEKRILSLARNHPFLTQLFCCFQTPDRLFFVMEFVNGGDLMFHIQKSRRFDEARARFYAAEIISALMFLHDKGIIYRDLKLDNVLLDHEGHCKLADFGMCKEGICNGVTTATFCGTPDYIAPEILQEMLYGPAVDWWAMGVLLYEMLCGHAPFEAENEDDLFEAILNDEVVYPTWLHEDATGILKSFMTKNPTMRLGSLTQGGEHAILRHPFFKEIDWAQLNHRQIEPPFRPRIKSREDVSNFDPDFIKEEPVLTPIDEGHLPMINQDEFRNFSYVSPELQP

[5] = target: T3, Serine/threonine-protein kinase D2 (Homo sapiens) (UniProt Q9BZL6); test: Selectivity interaction (KinomeScan (DiscoverX)) EUB0000666a PRKD2; conditions: at 10 µM
T3 sequence (whole entry): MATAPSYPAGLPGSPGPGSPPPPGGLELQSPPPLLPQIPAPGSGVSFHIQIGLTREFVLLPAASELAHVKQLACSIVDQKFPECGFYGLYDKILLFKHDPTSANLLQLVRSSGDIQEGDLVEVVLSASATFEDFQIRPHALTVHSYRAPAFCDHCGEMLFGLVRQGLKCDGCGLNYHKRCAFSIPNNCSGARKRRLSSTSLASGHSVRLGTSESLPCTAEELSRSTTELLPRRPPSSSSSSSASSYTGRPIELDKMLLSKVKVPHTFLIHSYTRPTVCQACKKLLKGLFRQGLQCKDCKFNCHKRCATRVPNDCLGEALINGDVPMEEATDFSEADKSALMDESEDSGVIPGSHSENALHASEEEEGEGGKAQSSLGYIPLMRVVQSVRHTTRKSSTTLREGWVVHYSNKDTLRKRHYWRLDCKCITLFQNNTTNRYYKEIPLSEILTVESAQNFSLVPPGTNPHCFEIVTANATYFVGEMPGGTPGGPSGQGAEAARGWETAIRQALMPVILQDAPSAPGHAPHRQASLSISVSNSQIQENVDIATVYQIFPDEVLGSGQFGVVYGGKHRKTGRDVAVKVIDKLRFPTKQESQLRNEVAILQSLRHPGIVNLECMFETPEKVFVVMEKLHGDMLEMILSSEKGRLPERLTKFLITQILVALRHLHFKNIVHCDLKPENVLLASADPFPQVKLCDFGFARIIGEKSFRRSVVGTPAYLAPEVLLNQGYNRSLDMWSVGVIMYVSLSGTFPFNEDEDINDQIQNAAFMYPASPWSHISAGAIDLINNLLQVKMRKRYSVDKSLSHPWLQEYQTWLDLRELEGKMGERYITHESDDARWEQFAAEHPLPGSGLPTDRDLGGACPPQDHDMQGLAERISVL

[6] = target: Muscarinic acetylcholine receptor M1 (Homo sapiens, UniProt P11229); test: Selectivity interaction (Muscarinic M1 receptor assay, human recombinant ) EUB0000877a CHRM1
Sequence of Muscarinic acetylcholine receptor M1 (P11229 whole entry): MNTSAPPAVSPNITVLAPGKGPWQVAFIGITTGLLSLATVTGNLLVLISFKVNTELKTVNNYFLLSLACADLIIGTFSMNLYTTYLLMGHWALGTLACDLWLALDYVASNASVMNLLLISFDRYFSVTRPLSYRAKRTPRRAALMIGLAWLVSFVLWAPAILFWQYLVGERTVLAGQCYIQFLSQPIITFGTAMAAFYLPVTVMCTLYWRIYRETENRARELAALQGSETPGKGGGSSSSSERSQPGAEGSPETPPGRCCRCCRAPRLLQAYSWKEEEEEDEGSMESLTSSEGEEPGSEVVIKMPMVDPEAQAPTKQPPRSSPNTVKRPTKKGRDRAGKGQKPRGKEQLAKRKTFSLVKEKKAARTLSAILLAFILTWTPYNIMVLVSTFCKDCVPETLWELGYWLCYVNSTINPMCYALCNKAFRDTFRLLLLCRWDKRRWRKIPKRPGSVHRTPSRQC

[7] = target: Mitogen-activated protein kinase 9 (Homo sapiens, UniProt P45984); test: Selectivity interaction (Kinase panel (Invitrogen)) EUB0000639a MAPK9; conditions: at 200 nM
Sequence of Mitogen-activated protein kinase 9 (P45984 whole entry, looked up): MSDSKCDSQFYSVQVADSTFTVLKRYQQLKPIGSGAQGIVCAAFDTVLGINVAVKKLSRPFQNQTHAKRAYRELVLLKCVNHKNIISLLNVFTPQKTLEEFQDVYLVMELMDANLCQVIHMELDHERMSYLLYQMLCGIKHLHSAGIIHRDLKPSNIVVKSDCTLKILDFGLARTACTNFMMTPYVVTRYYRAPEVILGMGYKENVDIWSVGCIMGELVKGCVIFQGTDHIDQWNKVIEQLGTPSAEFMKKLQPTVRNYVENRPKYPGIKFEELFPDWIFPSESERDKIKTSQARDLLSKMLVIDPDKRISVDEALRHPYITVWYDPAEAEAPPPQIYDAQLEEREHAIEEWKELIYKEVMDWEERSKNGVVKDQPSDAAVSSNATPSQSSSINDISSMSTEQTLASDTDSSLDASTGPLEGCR

[8] = target: SRSF protein kinase 1 (Homo sapiens, UniProt Q96SB4); test: Selectivity interaction (ActivX KiNativ screen (kinase selectivity in THP-1 cell lysates)) EUB0000639a SRPK1; assay type: subcellular; conditions: lysate, at 0.2 µM
Sequence of SRSF protein kinase 1 (Q96SB4 whole entry): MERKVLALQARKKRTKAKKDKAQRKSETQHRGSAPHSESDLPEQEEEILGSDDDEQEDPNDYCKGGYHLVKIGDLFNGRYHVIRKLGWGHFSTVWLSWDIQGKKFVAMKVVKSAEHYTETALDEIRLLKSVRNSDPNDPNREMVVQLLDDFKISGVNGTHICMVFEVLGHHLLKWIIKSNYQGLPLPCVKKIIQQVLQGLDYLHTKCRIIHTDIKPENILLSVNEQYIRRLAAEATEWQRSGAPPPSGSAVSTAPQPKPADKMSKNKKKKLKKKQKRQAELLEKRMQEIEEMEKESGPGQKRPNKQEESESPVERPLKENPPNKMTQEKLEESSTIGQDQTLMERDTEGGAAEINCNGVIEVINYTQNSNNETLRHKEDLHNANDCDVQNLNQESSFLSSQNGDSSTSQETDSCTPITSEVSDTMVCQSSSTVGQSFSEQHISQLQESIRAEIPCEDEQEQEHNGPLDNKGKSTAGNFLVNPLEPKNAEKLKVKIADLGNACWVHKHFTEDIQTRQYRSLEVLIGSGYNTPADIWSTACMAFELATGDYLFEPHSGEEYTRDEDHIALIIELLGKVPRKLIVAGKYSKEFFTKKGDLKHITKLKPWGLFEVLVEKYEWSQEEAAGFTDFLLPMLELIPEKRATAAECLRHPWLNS

[9] = target: Misshapen-like kinase 1 (Homo sapiens, UniProt Q8N4C8); test: Selectivity interaction (KinomeScan (DiscoverX)) EUB0000607a MINK1; conditions: at 10 µM
Sequence of Misshapen-like kinase 1 (Q8N4C8 whole entry, looked up): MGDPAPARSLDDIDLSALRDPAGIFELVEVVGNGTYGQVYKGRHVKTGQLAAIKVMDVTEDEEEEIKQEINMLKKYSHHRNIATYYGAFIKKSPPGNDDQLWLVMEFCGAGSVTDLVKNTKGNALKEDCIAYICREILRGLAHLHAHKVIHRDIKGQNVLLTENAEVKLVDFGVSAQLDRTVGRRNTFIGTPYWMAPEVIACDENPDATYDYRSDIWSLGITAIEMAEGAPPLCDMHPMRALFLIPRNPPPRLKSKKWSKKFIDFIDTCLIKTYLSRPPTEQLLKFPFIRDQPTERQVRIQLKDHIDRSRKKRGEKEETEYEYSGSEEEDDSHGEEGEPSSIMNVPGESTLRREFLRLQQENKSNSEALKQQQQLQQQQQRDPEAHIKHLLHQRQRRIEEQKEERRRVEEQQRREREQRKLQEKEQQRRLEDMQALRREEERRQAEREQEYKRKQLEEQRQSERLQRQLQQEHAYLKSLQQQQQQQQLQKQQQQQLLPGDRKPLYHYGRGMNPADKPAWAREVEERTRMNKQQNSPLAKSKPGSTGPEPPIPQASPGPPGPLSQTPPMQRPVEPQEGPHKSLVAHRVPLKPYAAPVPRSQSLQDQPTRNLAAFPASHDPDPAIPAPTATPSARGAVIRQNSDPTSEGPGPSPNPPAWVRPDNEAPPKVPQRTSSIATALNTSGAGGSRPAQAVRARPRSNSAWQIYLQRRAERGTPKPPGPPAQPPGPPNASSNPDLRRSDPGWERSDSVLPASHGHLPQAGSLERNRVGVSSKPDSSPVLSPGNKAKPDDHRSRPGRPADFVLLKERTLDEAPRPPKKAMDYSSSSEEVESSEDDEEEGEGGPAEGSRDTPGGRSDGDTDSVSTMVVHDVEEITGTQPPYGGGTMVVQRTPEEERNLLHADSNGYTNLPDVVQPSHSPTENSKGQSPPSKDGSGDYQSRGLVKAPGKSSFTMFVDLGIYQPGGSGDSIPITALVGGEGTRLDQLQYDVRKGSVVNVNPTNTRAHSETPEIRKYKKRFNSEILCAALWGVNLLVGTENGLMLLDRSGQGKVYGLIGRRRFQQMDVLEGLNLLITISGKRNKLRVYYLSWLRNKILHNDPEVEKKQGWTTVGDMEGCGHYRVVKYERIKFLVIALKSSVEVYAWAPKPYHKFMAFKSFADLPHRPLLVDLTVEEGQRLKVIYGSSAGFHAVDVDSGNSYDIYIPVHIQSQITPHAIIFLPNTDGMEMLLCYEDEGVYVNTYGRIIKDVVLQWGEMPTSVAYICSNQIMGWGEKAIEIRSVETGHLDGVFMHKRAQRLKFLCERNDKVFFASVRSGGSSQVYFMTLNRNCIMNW

Sequence of Tyrosine-protein kinase ABL1 (Homo sapiens), P00519 [F317L] (P00519 whole entry F317L): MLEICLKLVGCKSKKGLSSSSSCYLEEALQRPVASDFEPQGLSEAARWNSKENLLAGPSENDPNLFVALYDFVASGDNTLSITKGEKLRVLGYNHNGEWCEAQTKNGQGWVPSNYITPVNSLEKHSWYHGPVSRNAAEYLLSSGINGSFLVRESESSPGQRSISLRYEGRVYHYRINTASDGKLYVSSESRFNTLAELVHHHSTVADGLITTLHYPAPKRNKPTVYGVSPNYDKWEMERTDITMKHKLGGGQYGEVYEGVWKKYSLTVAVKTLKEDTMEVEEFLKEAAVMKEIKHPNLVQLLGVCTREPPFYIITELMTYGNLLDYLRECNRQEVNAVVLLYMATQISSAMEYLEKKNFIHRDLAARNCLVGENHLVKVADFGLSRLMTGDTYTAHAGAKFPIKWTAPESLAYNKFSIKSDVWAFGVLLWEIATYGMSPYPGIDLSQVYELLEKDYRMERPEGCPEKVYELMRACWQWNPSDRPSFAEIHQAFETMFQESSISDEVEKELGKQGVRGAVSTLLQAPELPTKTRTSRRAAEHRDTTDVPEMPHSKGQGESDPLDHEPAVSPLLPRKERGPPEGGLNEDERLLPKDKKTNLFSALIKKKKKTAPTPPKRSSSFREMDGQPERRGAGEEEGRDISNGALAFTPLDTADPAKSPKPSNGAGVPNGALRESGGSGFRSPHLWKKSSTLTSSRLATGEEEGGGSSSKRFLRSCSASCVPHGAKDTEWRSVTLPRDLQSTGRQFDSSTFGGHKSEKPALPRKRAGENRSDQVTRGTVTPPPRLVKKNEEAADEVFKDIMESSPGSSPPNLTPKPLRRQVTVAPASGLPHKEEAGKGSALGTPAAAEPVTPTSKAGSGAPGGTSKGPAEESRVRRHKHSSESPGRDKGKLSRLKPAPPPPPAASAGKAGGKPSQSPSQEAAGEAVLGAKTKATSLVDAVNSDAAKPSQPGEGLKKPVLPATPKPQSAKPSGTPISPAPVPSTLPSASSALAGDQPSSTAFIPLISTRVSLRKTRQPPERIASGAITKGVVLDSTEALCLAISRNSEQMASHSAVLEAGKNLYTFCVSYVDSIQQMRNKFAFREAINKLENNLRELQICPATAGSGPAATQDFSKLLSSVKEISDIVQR

Question: `COc1cc(N(C)c2ccnc3ccc(C(F)(F)F)cc23)cc(OC)c1OC` was tested. Which % binding [1] did it give?
Answer: 90%

Question: And the % binding [2]?
Answer: 75%

Question: How did the % of control [3] turn out when `CCC(=O)N1CCN(c2ccc(-n3c(=O)ccc4cnc5ccc(-c6cnc7ccccc7c6)cc5c43)cc2C(F)(F)F)CC1` was run?
Answer: 93%

Question: With `Cc1ccc(-c2ccc3c(ccc4sc5c(c43)NC[C@@H](C)NC5=O)n2)cn1` as the compound, how does the % of inhibition [4] read?
Answer: 6%

Question: With `O=C(NOC[C@H](O)CO)c1ccc(F)c(F)c1Nc1ccc(I)cc1F` as the compound, how does the % of control [5] read?
Answer: 100%

Question: Which IC50 [6] does the source give for `CCC(=O)N1CC[C@H](Nc2ncnc3c2CN(c2cnc(OC)c(C(F)(F)F)c2)CC3)C1` [LENIOLISIB] here?
Answer: > 30 µM

Question: What does the source list for `CC[C@@H]1[C@H](F)C(=O)N[C@@H]1COc1nccc2cc(C(N)=O)c(OC)cc12` [ZIMLOVISERTIB]?
Answer: % of inhibition [7]: 0.603%; % of inhibition [8]: 0.5%

Question: How did the % of control [9] turn out when `CNC(=O)Nc1ccc(-c2nc(N3CC4CCC(C3)O4)c3cnn(C4CCC5(CC4)OCCO5)c3n2)cc1` was run?
Answer: 100%
